“And” between values parts separate entries of the source, which are not always exact repeats. Identical values can stand only once. Like-named read-outs stand apart in the source and are kept apart here.
Legend:
Cytotoxicity test = assay type: cell-based
[1] = In vivo pharmacokinetics, oral administration; design: species or system rat; details: for Kp at 8 h: eye ball / plasma, read-out: Eye Ball/Plasma Ratio(Kp); for bioavailability: oral, read-out: absolute bioavailability
Method: Male Sprague Dawley (SD) and Wistar rats (5-week old) were obtained from Charles River Laboratories Japan (Yokohama, Japan) and Japan SLC, Inc. (Hamamatsu, Japan), respectively. All animals were maintained in air-conditioned quarters with room temperatures of 20 ± 2 °C, relative humidity of 50 ± 10%, and an alternating 12 h light/dark cycle. The rats were fed a certified diet MF (Oriental Yeast Co., Tokyo, Japan) and water ad libitum. The studies were conducted in accordance with the guidelines provided by the Animal Care and Use Committee of Osaka University (Identifier DouyakuR01-3-1).
A test compound (NK-5962) solution in 50% DMSO/water was injected intravenously (i.v.) to male SD rats. A test compound suspension in 0.5% methyl cellulose was administered orally (p.o.) to male Wistar rats. The dosage of the test compound was 1 mg/2 mL/kg (i.v.) and 10 or 100 mg/10 mL/kg (p.o.). Blood samples were collected from the jugular vein at 5 and 15 min and 1 h (i.v.) by using pre-heparinized syringe after the intravenous administration or from the caudal vein at 15 and 30 min, 1, 2 and 4 h (p.o.) by using heparinized capillary tube after the oral administration. At 30 min and 2 h (i.v.) or 8 h (p.o.), blood samples were collected from the abdominal aorta under isoflurane anesthesia and the eye balls and the whole brain were excised immediately.
Plasma was prepared by centrifugation of the blood samples. Plasma and tissues were stored at −80 °C. The tissues were homogenized with a four-fold volume of phosphate-buffered saline to obtain a 20% tissue homogenate. Plasma and 20% tissue homogenates were precipitated with 4–20 volumes of acetonitrile/IS and centrifuged at 15,000× g at 4 °C for 10 min. The supernatants were analyzed by liquid chromatography and tandem mass spectrometry (LC-MS/MS). Standard non-compartmental analysis was performed to determine the pharmacokinetic parameters: elimination half-life (t1/2) and area under the concentration time curve from time zero to infinity (AUC∞). The absolute bioavailability (BA) of the oral dose was calculated as AUC∞ (p.o.)/AUC∞ (i.v.).
Liquid chromatography and tandem mass spectrometry instrument (LC-MS8060) equipped with Shimadzu Nexera series LC system (Shimadzu, Kyoto, Japan) were used. All compounds were analyzed in multi-reaction monitoring mode under electron spray ionization conditions. The analytical column used was a […] C18 MGIII (3 μm × 2.0 mmID × 35 mm; OSAKA SODA, Osaka, Japan) at 50 °C. The gradient mobile phase consisted of 0.1% formic acid in water (mobile phase A) and 0.1% formic acid in acetonitrile (mobile phase B) at a total flow rate of 1 mL/minute. The initial mobile phase composition was 10% B, which was held constant for 0.2 min, increased in a linear fashion to 90% B over 1 min, then held constant for 0.8 min, and then finally brought back to the initial condition of 10% B over 0.01 min and re-equilibrated for 1 min. The transitions (precursor ion > product ion) of NK-5962 and IS (methyl testosterone) are 433.2 > 279.2 and 303.1 > 109.1 (positive), respectively.

[2] = tested on: apoptotic cells in the retinal outer nuclear layer of RCS rats; design: method as in PMID 28085534; details: cited from earlier work
Eye irritation test = details: in vivo
[3] = Hepatic microsomal stability assay, human; assay type: in vitro ADME
Method: The disappearance of the parent compound over time was measured by using the amount of drug at time zero as a reference. After 5 min of preincubation, 1 mM NADPH (final concentration, the same applies to the following) was added to a mixture containing 1 μM of the test compound, 0.2 mg/mL of rat or human liver microsomes (Sekisui XenoTech, LLC, Kansas City, KS), 1 mM EDTA, and 100 mM phosphate buffer (pH 7.4) and then incubated at 37 °C for 30 min by rotation at 60 rpm. An aliquot of 50 μL of the incubation mixture was sampled and added to 250 μL of chilled acetonitrile/internal standard (IS). After the centrifugation for 15 min at 3150× g at 4 °C, the supernatants were analyzed by LC-MS/MS. Hepatic microsomal stability (mL/min/kg, CLint) was calculated according to the previous report and 44.8 or 48.8 mg microsomal protein/g liver and 40.0 or 25.7 g liver/kg body weight were used as scaling factors for the rat or human, respectively.

[4] = Unbound fraction by equilibrium dialysis, medium containing 10% fetal bovine serum; assay type: in vitro ADME; details: 1 μM, equilibrium dialysis 37 °C 4 h
Method: An equilibrium dialysis apparatus, Rapid Equilibrium Dialysis (RED) Device Single-Use Plate with Inserts, 8K MWCO (ThermoFisher Scientific, Waltham, MA, USA), was used to determine the unbound fraction for each compound in human plasma, rat plasma, and medium containing 10% fetal bovine serum (FBS). Plasma or medium was mixed with the test compound (1 μM) and 200 μL aliquots were loaded into the apparatus and dialyzed versus 350 μL of 100 mM phosphate buffer (pH 7.4) at 37 °C for 4 h by rotation at 1000 rpm. The unbound fraction was calculated as the ratio of receiver side (buffer) to donor side (plasma) concentrations.

In the case of `CCCCN(CCCC)c1ccc(C=Cc2sc3ccccc3[n+]2CC(=O)O)cc1.[Br-]` [NK-5962, 2-[2-[4-(dibutylamino)phenyl]ethenyl]-3-carboxymethylbenzothiazolium bromide], the “toxicity in the cytotoxicity test” value (Cytotoxicity test) is reported as “not toxic”, the “maximum plasma concentration after the oral administration” value ([1]; excluding the 8 h values suspected of contamination) is reported as 17 nM and the “maximum eye ball concentration expected after oral administration” value ([1]; from maximum plasma concentration and eye ball/plasma ratio 0.072) is reported as 1.3 nM. For the same molecule, the Kp at 8 h ([1]; male, Wistar, oral 10 mg/kg, single rat) was under 0.059, the Kp at 8 h ([1]; male, Wistar, oral 100 mg/kg, single rat) was 0.072 and the concentration at 8 h ([1]; male, Wistar, rat, eye ball, po, 10 mg/kg, oral 10 mg/kg, single rat, read-out: Eye Ball Concentration) was under 0.1 nM. It also gave a concentration at 8 h ([1]; male, Wistar, rat, eye ball, po, 100 mg/kg, oral 100 mg/kg, single rat, read-out: Eye Ball Concentration) of 0.33 nM, a bioavailability ([1]; male, Wistar, rat, plasma, 10 mg/kg) of under 1% and a bioavailability ([1]; male, Wistar, rat, plasma, 100 mg/kg) of under 1%. It also gave a concentration at 0.25 h ([1]; male, Wistar, rat, plasma, po, 10 mg/kg, oral 10 mg/kg, 0.25 h, single rat) of 2.42 nM, a concentration at 0.5 h ([1]; male, Wistar, rat, plasma, po, 10 mg/kg, oral 10 mg/kg, 0.5 h, single rat) of 1.51 nM and a concentration at 1 h ([1]; male, Wistar, rat, plasma, po, 10 mg/kg, oral 10 mg/kg, 1 h, single rat) of 2.11 nM. It also gave a concentration at 2 h ([1]; male, Wistar, rat, plasma, po, 10 mg/kg, oral 10 mg/kg, 2 h, single rat) of 1.76 nM, a concentration at 4 h ([1]; male, Wistar, rat, plasma, po, 10 mg/kg, oral 10 mg/kg, 4 h, single rat) of 0.8 nM and a concentration at 8 h ([1]; male, Wistar, rat, plasma, po, 10 mg/kg, oral 10 mg/kg, single rat, * value deemed erroneous by contamination, read-out: Plasma Concentration) of 1.69 nM. For the same molecule, the concentration at 0.25 h ([1]; male, Wistar, rat, plasma, po, 100 mg/kg, oral 100 mg/kg, 0.25 h, single rat) was 11.7 nM, the concentration at 0.5 h ([1]; male, Wistar, rat, plasma, po, 100 mg/kg, oral 100 mg/kg, 0.5 h, single rat) was 14.6 nM and the concentration at 1 h ([1]; male, Wistar, rat, plasma, po, 100 mg/kg, oral 100 mg/kg, 1 h, single rat) was 17 nM. The concentration at 2 h ([1]; male, Wistar, rat, plasma, po, 100 mg/kg, oral 100 mg/kg, 2 h, single rat) was 17.2 nM, the concentration at 8 h ([1]; male, Wistar, rat, plasma, po, 100 mg/kg, oral 100 mg/kg, single rat, * value deemed erroneous by contamination, read-out: Plasma Concentration) was 4.57 nM and the “Plasma Concentration” value ([1]; oral 10 mg/kg, 0.25 h, single rat, 10 mg/kg) was 1.71 nM. The “Plasma Concentration” value ([1]; oral 10 mg/kg, 0.5 h, single rat, 10 mg/kg) was 1.90 nM, the “Plasma Concentration” value ([1]; oral 10 mg/kg, 1 h, single rat, 10 mg/kg) was 2.26 nM and the “Plasma Concentration” value ([1]; oral 10 mg/kg, 2 h, single rat, 10 mg/kg) was 1.51 nM. For the same molecule, the “Plasma Concentration” value ([1]; oral 10 mg/kg, 4 h, single rat, 10 mg/kg) was 1.20 nM, the “Plasma Concentration” value ([1]; oral 100 mg/kg, 0.25 h, single rat, 100 mg/kg) was 6.17 nM and the “Plasma Concentration” value ([1]; oral 100 mg/kg, 0.5 h, single rat, 100 mg/kg) was 11.15 nM. The “Plasma Concentration” value ([1]; oral 100 mg/kg, 1 h, single rat, 100 mg/kg) was 17.43 nM, the “Plasma Concentration” value ([1]; oral 100 mg/kg, 2 h, single rat, 100 mg/kg) was 11.51 nM and the “Plasma Concentration” value ([1]; oral 100 mg/kg, 4 h, single rat, 100 mg/kg) was 11.52 nM and 5.75 nM. The concentration at 8 h ([1]; oral 100 mg/kg, single rat, 100 mg/kg, read-out: Eye Ball Concentration) was 0.40 nM, the “number of TUNEL-positive cells in the outer nuclear layer of the four retinal sites (a + b + c + d)” value ([2]; 1.6 μM NK-5962 intravitreous, saline 139) was 85 and the “number of TUNEL-positive cells in the outer nuclear layer of the four retinal sites (a + b + c + d)” value ([2]; 16 μM NK-5962 intravitreous, saline 129) was 72. The “number of TUNEL-positive cells in the outer nuclear layer compared to saline-injected eyes” value ([2]; intravitreous 16 μM, constant dark condition, P = 0.0001) was “significantly less”, the “TUNEL-positive cells in the outer nuclear layer compared to the saline-injected eyes” value ([2]; intravitreous 3 μL twice, 16 to 16 × 10^−2 μM, 12 h light/dark cycle) was “significantly less” and the “toxicity in the eye irritation test” value (Eye irritation test) was “not toxic”. For the same molecule, the “Microsome Metabolic Stability Human” value ([3]; 1 μM, 0.2 mg/mL microsomes, 1 mM NADPH, 30 min) was 54.5 µL/min/mg, the “metabolic stability (in words)” value ([3]; human liver microsomes) was “moderate metabolic stability” and the “stability in the absence of the coenzyme NADPH” value ([3]; human liver microsomes, without NADPH) was “stable”. The CLint scaled at 1 μM ([3]; human, liver microsomes, pH 7.4, 1 μM, 0.2 mg/mL microsomes, 1 mM NADPH, 30 min, read-out: Microsome Metabolic Stability Human (CLint)) was 68.3 mL/min/kg and the “Protein-Binding (Non-Binding Ratio) 10% Fetal Bovine Serum” value [4] was 0.34.
